Laboratory results from ChEMBL document CHEMBL5154863, “Design and synthesis of quinolinium-based derivatives targeting FtsZ for antibacterial evaluation and mechanistic study” (Eur J Med Chem, 2022).
≈ marks a conversion by molar mass, not a printed value.

Columns and labels:
Type in all cases: functional
Settings in all cases: time 20-24 hrs
[1] = tested on: Enterococcus faecium; experiment: Antibacterial activity against vancomycin resistant Enterococcus faecium ATCC 700221 assessed as inhibition of bacterial growth incubated for 20 to 24 hrs by broth micro dilution method
[2] = tested on: Klebsiella pneumoniae; experiment: Antibacterial activity against NDM-1 expressing Klebsiella pneumoniae ATCC BAA 2470 assessed as inhibition of bacterial growth incubated for 20 to 24 hrs by broth micro dilution method
[3] = tested on: Staphylococcus epidermidis; experiment: Antibacterial activity against Staphylococcus epidermidis ATCC 12228 assessed as inhibition of bacterial growth incubated for 20 to 24 hrs by broth micro dilution method
[4] = tested on: Pseudomonas aeruginosa; experiment: Antibacterial activity against […] Pseudomonas aeruginosa ATCC 27853 assessed as inhibition of bacterial growth incubated for 20 to 24 hrs by broth micro dilution method
[5] = tested on: Staphylococcus aureus; experiment: Antibacterial activity against Staphylococcus aureus ATCC 29213 assessed as inhibition of bacterial growth incubated for 20 to 24 hrs by broth micro dilution method
[6] = tested on: Enterococcus faecalis; experiment: Antibacterial activity against Enterococcus faecalis ATCC 29212 assessed as inhibition of bacterial growth incubated for 20 to 24 hrs by broth micro dilution method
[7] = tested on: Acinetobacter baumannii; experiment: Antibacterial activity against multi-drug resistant Acinetobacter baumannii ATCC 19606 assessed as inhibition of bacterial growth incubated for 20 to 24 hrs by broth micro dilution method
[8] = tested on: Staphylococcus aureus; experiment: Antibacterial activity against methicillin-resistant Staphylococcus aureus ATCC 43300 assessed as inhibition of bacterial growth incubated for 20 to 24 hrs by broth micro dilution method
[9] = tested on: Staphylococcus aureus; experiment: Antibacterial activity against vancomycin-intermediate Staphylococcus aureus Mu50 assessed as inhibition of bacterial growth incubated for 20 to 24 hrs by broth micro dilution method
[10] = tested on: Enterococcus faecium; experiment: Antibacterial activity against Enterococcus faecium ATCC 49624 assessed as inhibition of bacterial growth incubated for 20 to 24 hrs by broth micro dilution method
[11] = tested on: Escherichia coli; experiment: Antibacterial activity against NDM-1 expressing Escherichia coli ATCC BAA2469 assessed as inhibition of bacterial growth incubated for 20 to 24 hrs by broth micro dilution method
[12] = tested on: Staphylococcus aureus; experiment: Antibacterial activity against methicillin-resistant Staphylococcus aureus ATCC 33592 assessed as inhibition of bacterial growth incubated for 20 to 24 hrs by broth micro dilution method
[13] = tested on: Enterococcus faecium; experiment: Antibacterial activity against vancomycin-resistant Enterococcus faecium clinical isolate assessed as inhibition of bacterial growth incubated for 20 to 24 hrs by broth micro dilution method
[14] = tested on: Escherichia coli; experiment: Antibacterial activity against Escherichia coli ATCC 25922 assessed as inhibition of bacterial growth incubated for 20 to 24 hrs by broth micro dilution method
[15] = tested on: Staphylococcus aureus; experiment: Antibacterial activity against methicillin-resistant Staphylococcus aureus ATCC BAA-1720 assessed as inhibition of bacterial growth incubated for 20 to 24 hrs by broth micro dilution method
[16] = tested on: Bacillus subtilis; experiment: Antibacterial activity against Bacillus subtilis CMCC (B) 63501 assessed as inhibition of bacterial growth incubated for 20 to 24 hrs by broth micro dilution method
[17] = tested on: Escherichia coli; experiment: Antibacterial activity against Escherichia coli ATCC 8739 assessed as inhibition of bacterial growth incubated for 20 to 24 hrs by broth micro dilution method

SMILES	MIC [1]	MIC [2]	MIC [3]	MIC [4]	MIC [5]	MIC [6]	MIC [7]	MIC [8]	MIC [9]	MIC [10]	MIC [11]	MIC [12]	MIC [13]	MIC [14]	MIC [15]	MIC [16]	MIC [17]
CN(C)c1ccc(/C=C/c2cc(NCCCO)c3ccccc3[n+]2C)cc1.[I-]	16 µg/mL	> 64 µg/mL	8 µg/mL	> 64 µg/mL	32 µg/mL	16 µg/mL	> 64 µg/mL	64 µg/mL	16 µg/mL	8 µg/mL	> 64 µg/mL	32 µg/mL	> 64 µg/mL	> 64 µg/mL	64 µg/mL	> 64 µg/mL	> 64 µg/mL
CC1(C)S[C@@H]2[C@H](NC(=O)[C@H](N)c3ccccc3)C(=O)N2[C@H]1C(=O)O [AMPICILLIN]	0.25 µg/mL (≈ 0.715 µM)	> 64 µg/mL	> 64 µg/mL	> 64 µg/mL	> 64 µg/mL	1 µg/mL (≈ 2.86 µM)	> 64 µg/mL	> 64 µg/mL	0.125 µg/mL (≈ 0.358 µM)	2 µg/mL (≈ 5.72 µM)	> 64 µg/mL	64 µg/mL (≈ 183 µM)	> 64 µg/mL		> 64 µg/mL	4 µg/mL (≈ 11.4 µM)	16 µg/mL (≈ 45.8 µM)
CN(C)c1ccc(/C=C/c2ccc3ccccc3[n+]2C)cc1.[I-]			16 µg/mL		16 µg/mL	> 64 µg/mL				8 µg/mL						64 µg/mL	
CCCCNc1cc(/C=C/c2ccc(N(C)C)cc2)c2ccccc2[n+]1C.[I-]	8 µg/mL	> 64 µg/mL	16 µg/mL	> 64 µg/mL	32 µg/mL	32 µg/mL	> 64 µg/mL	16 µg/mL	16 µg/mL	16 µg/mL	> 64 µg/mL	32 µg/mL	8 µg/mL	> 64 µg/mL	16 µg/mL	8 µg/mL	> 64 µg/mL
CN(C)c1ccc(/C=C/c2cc(N3CCCC3)c3ccccc3[n+]2C)cc1.[I-]	2 µg/mL	> 64 µg/mL	1 µg/mL	> 64 µg/mL	1 µg/mL	2 µg/mL	32 µg/mL	2 µg/mL	1 µg/mL	4 µg/mL	64 µg/mL	1 µg/mL	4 µg/mL	4 µg/mL	8 µg/mL	4 µg/mL	16 µg/mL
CN(C)c1ccc(/C=C/c2cc(N3CCOCC3)c3ccccc3[n+]2C)cc1.[I-]	16 µg/mL	> 64 µg/mL	16 µg/mL	> 64 µg/mL	32 µg/mL	> 64 µg/mL	> 64 µg/mL	64 µg/mL	32 µg/mL	8 µg/mL	> 64 µg/mL	64 µg/mL	32 µg/mL	> 64 µg/mL	64 µg/mL	32 µg/mL	> 64 µg/mL
CN(C)c1ccc(/C=C/c2cc(NCCCc3ccccc3)[n+](C)c3ccccc23)cc1.[I-]	4 µg/mL	> 64 µg/mL	4 µg/mL	> 64 µg/mL	4 µg/mL	4 µg/mL	> 64 µg/mL	4 µg/mL	4 µg/mL	4 µg/mL	> 64 µg/mL	4 µg/mL	4 µg/mL	> 64 µg/mL	4 µg/mL	2 µg/mL	> 64 µg/mL
CN[C@H](CC(C)C)C(=O)N[C@H]1C(=O)N[C@@H](CC(N)=O)C(=O)N[C@H]2C(=O)N[C@H]3C(=O)N[C@H](C(=O)N[C@H](C(=O)O)c4cc(O)cc(O)c4-c4cc3ccc4O)[C@H](O)c3ccc(c(Cl)c3)Oc3cc2cc(c3O[C@@H]2O[C@H](CO)[C@@H](O)[C@H](O)[C@H]2O[C@H]2C[C@](C)(N)[C@H](O)[C@H](C)O2)Oc2ccc(cc2Cl)[C@H]1O [VANCOMYCIN]	1020 µg/mL (≈ 707 µM)	> 64 µg/mL	> 64 µg/mL	> 64 µg/mL		2 µg/mL (≈ 1.38 µM)	> 64 µg/mL		32 µg/mL (≈ 22.1 µM)		> 64 µg/mL		> 64 µg/mL	> 64 µg/mL		0.25 µg/mL (≈ 0.173 µM)	> 64 µg/mL
CN(C)c1ccc(/C=C/c2cc(N3CCCC3)[n+](C)c3ccccc23)cc1.[I-]	8 µg/mL	> 64 µg/mL	2 µg/mL	> 64 µg/mL	4 µg/mL	64 µg/mL	> 64 µg/mL	16 µg/mL	8 µg/mL	16 µg/mL	64 µg/mL	16 µg/mL	16 µg/mL	16 µg/mL	16 µg/mL	16 µg/mL	32 µg/mL
CCCNc1cc(/C=C/c2ccc(N(C)C)cc2)c2ccccc2[n+]1C.[I-]	16 µg/mL	> 64 µg/mL	32 µg/mL	> 64 µg/mL	> 64 µg/mL	64 µg/mL	> 64 µg/mL	32 µg/mL	32 µg/mL	32 µg/mL	> 64 µg/mL	> 64 µg/mL	16 µg/mL	> 64 µg/mL	16 µg/mL	16 µg/mL	> 64 µg/mL
CN(C)c1ccc(/C=C/c2cc(N3CCOCC3)[n+](C)c3ccccc23)cc1.[I-]	32 µg/mL	> 64 µg/mL	16 µg/mL	> 64 µg/mL	32 µg/mL	> 64 µg/mL	> 64 µg/mL	> 64 µg/mL	32 µg/mL	8 µg/mL	> 64 µg/mL	64 µg/mL	> 64 µg/mL	> 64 µg/mL	> 64 µg/mL	16 µg/mL	> 64 µg/mL
CN(C)c1ccc(/C=C/c2cc(NCCCO)[n+](C)c3ccccc23)cc1.[I-]	64 µg/mL	> 64 µg/mL	64 µg/mL	> 64 µg/mL	> 64 µg/mL	> 64 µg/mL	> 64 µg/mL	> 64 µg/mL	64 µg/mL	> 64 µg/mL	> 64 µg/mL	64 µg/mL	64 µg/mL	> 64 µg/mL	64 µg/mL	32 µg/mL	> 64 µg/mL
CN(C)c1ccc(/C=C/c2cc(N3CCCCC3)[n+](C)c3ccccc23)cc1.[I-]	2 µg/mL	> 64 µg/mL	1 µg/mL	> 64 µg/mL	2 µg/mL	16 µg/mL	> 64 µg/mL	4 µg/mL	4 µg/mL	8 µg/mL	64 µg/mL	8 µg/mL	8 µg/mL	16 µg/mL	4 µg/mL	4 µg/mL	32 µg/mL
CCCCNc1cc(/C=C/c2ccc(N(C)C)cc2)[n+](C)c2ccccc12.[I-]	4 µg/mL	> 64 µg/mL	2 µg/mL	> 64 µg/mL	4 µg/mL	2 µg/mL	> 64 µg/mL	4 µg/mL	4 µg/mL	16 µg/mL	> 64 µg/mL	2 µg/mL	8 µg/mL	32 µg/mL	2 µg/mL	8 µg/mL	> 64 µg/mL
CCCCCNc1cc(/C=C/c2ccc(N(C)C)cc2)c2ccccc2[n+]1C.[I-]	8 µg/mL	> 64 µg/mL	8 µg/mL	> 64 µg/mL	8 µg/mL	16 µg/mL	> 64 µg/mL	8 µg/mL	8 µg/mL	8 µg/mL	> 64 µg/mL	8 µg/mL	8 µg/mL	> 64 µg/mL	8 µg/mL	8 µg/mL	> 64 µg/mL
CCCNc1cc(/C=C/c2ccc(N(C)C)cc2)[n+](C)c2ccccc12.[I-]	4 µg/mL	> 64 µg/mL	2 µg/mL	> 64 µg/mL	8 µg/mL	4 µg/mL	> 64 µg/mL	8 µg/mL	8 µg/mL	16 µg/mL	> 64 µg/mL	4 µg/mL	8 µg/mL	32 µg/mL	4 µg/mL	16 µg/mL	> 64 µg/mL
O=C(O)c1cn(C2CC2)c2cc(N3CCNCC3)c(F)cc2c1=O [CIPROFLOXACIN]	> 64 µg/mL	> 64 µg/mL	1 µg/mL (≈ 3.02 µM)	1 µg/mL (≈ 3.02 µM)	0.25 µg/mL (≈ 0.754 µM)	4 µg/mL (≈ 12.1 µM)		2 µg/mL (≈ 6.04 µM)	1 µg/mL (≈ 3.02 µM)	32 µg/mL (≈ 96.6 µM)	> 64 µg/mL				> 64 µg/mL	0.25 µg/mL (≈ 0.754 µM)	< 0.125 µg/mL
CN(C)c1ccc(/C=C/c2cc[n+](C)c3ccccc23)cc1.[I-]			16 µg/mL		16 µg/mL	> 64 µg/mL				16 µg/mL						64 µg/mL	
